Experimental data as given in ChEMBL document CHEMBL1201862, “PubChem BioAssay data set” (2004).
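The compound was tested at five concentrations on cells cultured in 96-well plates, with a 48-hour exposure period. GI50 = concentration required for 50% inhibition of growth.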 Activity calls are given as the source filed them. No stated cut-off is given here; in the data, active = GI50 up to about 1.1 µM and inactive = higher.

Tests used:
Assay in all cases: NCI anticancer screen, dose series, 48 h
[1] = tested on: HT-29
[2] = tested on: T47D
[3] = tested on: MDA-N
[4] = tested on: OVCAR-8
[5] = tested on: HCT-116
[6] = tested on: LOX IMVI
[7] = tested on: TK-10
[8] = tested on: 786-0
[9] = tested on: SF-295
[10] = tested on: KM12
[11] = tested on: ACHN
[12] = tested on: UACC-62
[13] = tested on: HOP-92
[14] = tested on: CAKI-1
[15] = tested on: IGROV-1
[16] = tested on: NCI-H460
[17] = tested on: M14
[18] = tested on: MDA-MB-231
[19] = tested on: OVCAR-4
[20] = tested on: HCC 2998

Measured: GI50

COC(=O)c1cnn2c1ccc1ccccc12
inactive: [1] > 100 µM | [2] > 100 µM | [3] > 100 µM | [4] > 100 µM | [5] > 100 µM | [6] > 100 µM | [7] > 100 µM | [8] > 100 µM | [9] > 100 µM | [10] 61.5 µM | [11] > 100 µM | [12] > 100 µM | [13] > 100 µM | [14] > 100 µM | [15] 78.9 µM | [16] > 100 µM | [17] > 100 µM | [18] > 100 µM

COc1cc2c(c(O)c1OC)C(O)C1CCC(=O)N1C2c1cccc2ccccc12 (stereo unspecified)
inactive: [1] > 100 µM | [2] > 100 µM | [3] 76.4 µM | [19] 65.6 µM | [4] > 100 µM | [5] > 100 µM | [8] > 100 µM | [9] 99.8 µM | [10] 34.9 µM | [11] 82.2 µM | [12] > 100 µM | [13] > 100 µM | [14] > 100 µM | [15] > 100 µM | [16] > 100 µM | [17] > 100 µM | [18] 89.5 µM

NC(=S)Nc1nc(=S)[nH]c2[nH]ccc12
inactive: [1] 99.5 µM | [2] 58.2 µM | [3] 98.2 µM | [4] 49.3 µM | [5] 90.8 µM | [6] 27.7 µM | [7] 94.8 µM | [8] > 100 µM | [9] 65.5 µM | [10] 26.2 µM | [11] > 100 µM | [12] 91 µM | [13] > 100 µM | [14] > 100 µM | [15] 88.5 µM | [16] > 100 µM | [17] > 100 µM | [18] > 100 µM

Clc1nc(Cl)c(Cc2ccccc2)c(Cl)n1
inactive: [1] 3.94 µM | [2] 9.12 µM | [3] 3.59 µM | [19] 3.67 µM | [4] 4.34 µM | [5] 1.91 µM | [6] 3.03 µM | [7] 18.3 µM | [8] 2.36 µM | [9] 14.4 µM | [10] 7.87 µM | [11] 15.7 µM | [12] 3.69 µM | [15] 5.97 µM | [20] 13.7 µM | [16] > 10 µM | [17] 2.82 µM | [18] 3.75 µM

COC(=O)Nc1nc2cc(NC(=O)c3ccc(I)cc3)ccc2[nH]1
inactive: [1] > 100 µM | [2] > 100 µM | [3] > 100 µM | [19] > 100 µM | [4] > 100 µM | [5] > 100 µM | [6] > 100 µM | [7] > 100 µM | [8] > 100 µM | [9] > 100 µM | [10] > 100 µM | [11] > 100 µM | [12] > 100 µM | [13] > 100 µM | [14] > 100 µM | [15] > 100 µM | [16] > 100 µM | [17] > 100 µM | [18] > 100 µM

O=S(=O)(/N=c1/[nH]c2ccccc2n1S(=O)(=O)c1ccccc1)c1ccccc1
inactive: [1] 44 µM | [2] 53.1 µM | [3] 56.2 µM | [19] 46.6 µM | [4] 55 µM | [5] 46.7 µM | [6] > 100 µM | [7] 47.5 µM | [8] 67 µM | [9] 41.1 µM | [10] 33.1 µM | [11] 26.5 µM | [12] 26.7 µM | [13] 38.5 µM | [14] 65.8 µM | [15] 48 µM | [17] 25.2 µM | [18] > 100 µM

Cc1cc(C)c2c(O)c(S(=O)(=O)c3ccc(Cl)cc3)c(=O)oc2c1
inactive: [1] 95.3 µM | [2] 99.8 µM | [3] 79.1 µM | [19] 41.7 µM | [4] 29.2 µM | [5] 53.5 µM | [8] 78.2 µM | [9] 36.5 µM | [10] 36.1 µM | [12] 58.6 µM | [13] 65.6 µM | [14] 72.6 µM | [15] 31.7 µM | [16] 52.2 µM | [17] 34.3 µM | [18] 78.7 µM

C=CCNC(=S)N/C=C(\C(=O)OCC)C(=O)C(=O)OCC
inactive: [1] > 100 µM | [2] > 100 µM | [3] > 100 µM | [19] > 100 µM | [4] > 100 µM | [5] > 100 µM | [6] > 100 µM | [8] > 100 µM | [9] > 100 µM | [10] > 100 µM | [11] > 100 µM | [12] > 100 µM | [14] > 100 µM | [15] > 100 µM | [20] > 100 µM | [16] > 100 µM | [17] > 100 µM | [18] > 100 µM

CCOP(=O)(/C=C/n1ccc(N)nc1=O)OCC
inactive: [1] > 100 µM | [2] > 100 µM | [3] > 100 µM | [19] > 100 µM | [4] > 100 µM | [5] > 100 µM | [6] > 100 µM | [7] > 100 µM | [8] > 100 µM | [9] > 100 µM | [10] > 100 µM | [11] > 100 µM | [12] > 100 µM | [14] > 100 µM | [15] > 100 µM | [16] > 100 µM | [17] > 100 µM | [18] > 100 µM

COc1ccc(C2Oc3c(cccc3OC)C=C2[N+](=O)[O-])cc1OC (stereo unspecified)
inactive: [1] 18.5 µM | [2] 12.2 µM | [3] 5.19 µM | [19] 18.7 µM | [4] 8.93 µM | [5] 4.55 µM | [6] 2.49 µM | [7] 23.8 µM | [8] 3.74 µM | [9] 20.6 µM | [10] 9.98 µM | [11] 10.4 µM | [12] 4.16 µM | [14] 13.8 µM | [15] 11.9 µM | [16] 21.5 µM | [17] 3.82 µM | [18] 9.91 µM

O=C(NNc1nc(-c2ccccc2)cs1)Nc1ccccc1
inactive: [1] 29 µM | [2] 23.2 µM | [3] 24.2 µM | [19] 28.7 µM | [4] 22.7 µM | [5] 25.5 µM | [7] 19.5 µM | [8] 30.2 µM | [9] 28.1 µM | [10] 32.9 µM | [11] 37.5 µM | [12] 19.4 µM | [14] 43.3 µM | [15] 34.8 µM | [20] 25.6 µM | [16] 24 µM | [17] 28.5 µM | [18] 21.4 µM
